13 molecules from patent US9615577B2, “Herbicidally active cyclic dione compounds, or derivatives therefor, substituted by a phenyl which has an alkynyl-containing substituent” (Syngenta Limited, priority 2012, dated 2017) can be followed below.

Holding throughout (assay type): in vivo
The subject of assay [1] is Brachiaria plantaginea (BRAPL). Put plainly: Test 1B glasshouse assay for herbicidal activity, post-emergence. The note with it: Urochloa plantaginea; for pest or weed control at 60 g/ha: 60 g/ha application rate; for pest or weed control at 30 g/ha: 30 g/ha application rate; for pest or weed control at 125 g/ha: 125 g/ha application rate. Put shortly: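 Pots sown in standard soil; IF50 formulation diluted in 0.2% v/v X-77 and sprayed 1 day after sowing (pre-emergence) or ~12 days (post-emergence). Glasshouse at 24/18 or 20/16 °C, 16 h light, 65% humidity. Visual % phytotoxicity (0–100) scored 20 DAA pre-emergence, 15 DAA post-emergence.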

Assay [2] has as its system Solanum nigrum (SOLNI). Kind of assay: Test 1A glasshouse assay for herbicidal activity, post-emergence. Particulars: 312 h, 250 g/ha, evaluated after 13 days, read-out: percentage phytotoxicity SOLNI. Put shortly:
(§1)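 Visual % phytotoxicity (0 = no damage, 100 = total damage) scored 13 d after spraying. Pots sown in standard soil; spray applied 1 d post-sowing for pre-emergence, 8 d for post-emergence. Vehicle acetone/water 50:50 + 0.5% Tween 20; glasshouse 24/16 °C, 14 h light, 65% RH, watered twice daily.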

The subject of assay [3] is Ipomoea hederacea (IPOHE). The description is as above. Particulars: 312 h, 250 g/ha, evaluated after 13 days, read-out: percentage phytotoxicity IPOHE. Put shortly:
as §1

Assay [4] relates to Solanum nigrum (SOLNI). Kind of assay: Test 1A glasshouse assay for herbicidal activity, pre-emergence. The note with it: 312 h, evaluated after 13 days, read-out: percentage phytotoxicity SOLNI. The essentials: as §1
The subject of assay [5] is Ipomoea hederacea (IPOHE). The assay is described as above. Particulars: 312 h, evaluated after 13 days, read-out: percentage phytotoxicity IPOHE. The essentials: as §1
For assay [6], the system named is Setaria faberi (SETFA). Put plainly: Biological Example 2 comparative herbicidal data, post-emergence glasshouse screen. The note with it: 312 h, read-out: Post-emergence herbicidal activities (percentage phytotoxicity) SETFA; for pest or weed control at 15.625 g/ha: 15.625 g/ha application rate; for pest or weed control at 62.5 g/ha: 62.5 g/ha application rate; for pest or weed control at 8 g/ha: 8 g/ha application rate; for pest or weed control at 30 g/ha: 30 g/ha application rate. The essentials: (§2)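 Plants grown 8 days in a glasshouse (24/16°C day/night, 14 h light, 65% humidity) were sprayed with compound in acetone/water (50:50) containing 0.5% Tween 20. They were kept under the same conditions and watered twice daily. Phytotoxicity was scored visually after 13 days (0 = no damage, 100 = total damage).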

The test system of assay [7] is Alopecurus myosuroides (ALOMY). Described as above. Particulars: 312 h, read-out: Post-emergence herbicidal activities (percentage phytotoxicity) ALOMY; for pest or weed control at 15.625 g/ha: 15.625 g/ha application rate; for pest or weed control at 62.5 g/ha: 62.5 g/ha application rate; for pest or weed control at 8 g/ha: 8 g/ha application rate; for pest or weed control at 30 g/ha: 30 g/ha application rate. Put shortly: as §2

For assay [8], the system named is Echinochloa crus-galli (ECHCG). The description is as above. Particulars: 312 h, read-out: Post-emergence herbicidal activities (percentage phytotoxicity) ECHCG; for pest or weed control at 15.625 g/ha: 15.625 g/ha application rate; for pest or weed control at 62.5 g/ha: 62.5 g/ha application rate; for pest or weed control at 8 g/ha: 8 g/ha application rate; for pest or weed control at 30 g/ha: 30 g/ha application rate. The essentials:
as §2

Assay [9] relates to Abutilon theophasti Medik. (ABUTH). The description is as above. The note with it: read-out: Post-emergence herbicidal activities (percentage phytotoxicity) ABUTH; for pest or weed control at 8 g/ha: 8 g/ha application rate; for pest or weed control at 30 g/ha: 30 g/ha application rate.
In assay [10] the test system is Amarantus retroflexus (AMARE). The description is as above. Particulars: Amaranthus retroflexus, read-out: Post-emergence herbicidal activities (percentage phytotoxicity) AMARE; for pest or weed control at 8 g/ha: 8 g/ha application rate; for pest or weed control at 30 g/ha: 30 g/ha application rate.
In assay [11] the test system is Abutilon theophasti Medik. (ABUTH). Put plainly: Test 1A glasshouse assay for herbicidal activity, pre-emergence. Particulars: 312 h, evaluated after 13 days, read-out: percentage phytotoxicity ABUTH. The essentials: as §1

Regarding `CC#Cc1ccc(C2C(=O)C3CCC(C3)C2=O)c(C)c1` (single isomer, unassigned) [Compound A-2], the pest or weed control at 60 g/ha in assay [1] stood at 100%. The pest or weed control at 250 g/ha came to 20% in assay [2], 30% in assay [3], 0% in assay [4] and 10% in [5].
Turning to `CC#Cc1ccc(C2C(=O)C(C)(C)OC(C)(C)C2=O)c(C)c1` [Compound A-1], the pest or weed control at 60 g/ha in [1] is 90%. Moreover, the pest or weed control at 250 g/ha worked out at 30% in assay [2], 90% in [3], 0% in assay [4] and 0% in assay [5]. Besides, the figures for the pest or weed control at 15.625 g/ha in assay [6], in assay [7] and in assay [8] were 20%, 10% and 20%, respectively. Moreover, the pest or weed control at 62.5 g/ha in assay [6] worked out at 40%; in assay [7], 80%; in assay [8] it was 90%.
Regarding `CC#Cc1cc(C)c(C2C(=O)C3CCC(C3)C2=O)c(C)c1` (centres unmarked) [Compound A-5], the pest or weed control at 30 g/ha worked out at 90% in [1]; 0% in [9]; 10% in [10]; 70% in assay [6]; 80% in assay [7]; 100% in [8]. The same molecule gave a pest or weed control at 60 g/ha in assay [1] of 100%. The pest or weed control at 125 g/ha in [1] worked out at 100%. In assay [1] (500 g/ha application rate), this molecule gave a pest or weed control at 500 g/ha of 100%. In addition, the pest or weed control at 8 g/ha in assay [9] stood at 0%; in assay [10], 0%; in assay [6], 30%; in assay [7], 50%; in [8], 80%. Besides, the pest or weed control at 250 g/ha in assay [11] is 0%.
Take `CC#Cc1cc(C)c(C2C(=O)CC(CC3CCOCC3)CC2=O)c(C)c1` (centres unmarked) [Compound A-9]: the pest or weed control at 250 g/ha in [2] is 80%; in [3] it was 50%; in assay [4] it was 70%; in assay [5], 20%. Moreover, the pest or weed control at 15.625 g/ha in assay [6] was determined as 80%; in assay [7] it was 80%; in [8], 100%. Also, the pest or weed control at 62.5 g/ha stood at 90% in [6], 90% in assay [7] and 100% in assay [8].
In [1], `CC#Cc1cc(C)c(C2C(=O)C3CCC(C3)C2=O)c(OC)c1` (centres unmarked) [Compound A-10] came in with a pest or weed control at 30 g/ha of 90% and a pest or weed control at 125 g/ha of 100%. The pest or weed control at 250 g/ha in [11] was found to be 0%.
Regarding `CC#Cc1cc(Cl)c(C2C(=O)C3CCC(C3)C2=O)c(OC)c1` (centres unmarked) [Compound A-12], the pest or weed control at 30 g/ha in assay [1] is 70%; in assay [9], 40%; in assay [10], 0%; in assay [6], 90%; in [7] it was 90%; in [8], 100%. The molecule further showed a pest or weed control at 125 g/ha in [1] of 100%. The pest or weed control at 8 g/ha in [9] turned out to be 10%; in assay [10], 0%; in assay [6] it was 50%; in [7] it was 40%; in assay [8] it was 90%. The pest or weed control at 62.5 g/ha in [11] (62.5 g/ha) stood at 0%. For the same molecule, the pest or weed control at 250 g/ha in [11] turned out to be 0%.
As for `CC#Cc1cc(C)c(C2C(=O)CC(c3ccccn3)CC2=O)c(C)c1` (centres unmarked) [Compound A-13], the pest or weed control at 125 g/ha in assay [1] worked out at 100%. Also, the pest or weed control at 8 g/ha in assay [9] stood at 0%; in assay [10] it was 0%; in [6], 80%; in assay [7] it was 60%; in assay [8], 80%. Further, the pest or weed control at 30 g/ha stood at 40% in assay [9]; 30% in assay [10]; 30% in assay [11] (30 g/ha); 90% in [6]; 70% in [7]; 80% in [8]. Further, in [11], the pest or weed control at 250 g/ha amounted to 70%.
In assay [1], `CC#Cc1cc(C)c(C2=C(OC(=O)OC)CC(c3ccccn3)CC2=O)c(C)c1` (centres unmarked) [Compound A-14] returned a pest or weed control at 30 g/ha of 70% and a pest or weed control at 125 g/ha of 100%. Further, in assay [11], the pest or weed control at 250 g/ha was determined as 70%.
As for `CC#Cc1cc(C)c(C2=C(OC(C)=O)CC(c3ccccn3)CC2=O)c(C)c1` (centres unmarked) [Compound A-15], in assay [1], the pest or weed control at 30 g/ha came out at 100% and the pest or weed control at 125 g/ha came out at 100%. The pest or weed control at 250 g/ha in [11] was determined as 50%.
In the case of `CC#Cc1cc(Cl)c(C2C(=O)C3CCC(C3)C2=O)c(OCC)c1` (centres unmarked) [Compound A-16], in [11], the pest or weed control at 250 g/ha is 70%.
For `CC#Cc1cc(Cl)c(C2C(=O)C3CCC(C)(C2=O)C3(C)C)c(OC)c1` (centres unmarked) [Compound A-17], in assay [11], the pest or weed control at 250 g/ha was determined as 70%.
`CC#Cc1cc(Cl)c(C2C(=O)CC3(CCOCC3)CC2=O)c(OC)c1` [Compound A-20, 9-(2-Chloro-6-methoxy-4-prop-1-ynyl-phenyl)-3-oxa-spiro[5.5]undecane-8,10-dione]: the pest or weed control at 8 g/ha was determined as 50% in assay [9]; 10% in assay [10]; 90% in [6]; 90% in assay [7]; 100% in [8]. In addition, the pest or weed control at 30 g/ha in [9] turned out to be 80%; in [10], 80%; in assay [6], 100%; in assay [7], 100%; in assay [8] it was 100%. The pest or weed control at 250 g/ha in assay [11] was found to be 80%.
Consider `CC#Cc1cc(C)c(C2C(=O)CC(CCSC)CC2=O)c(C)c1` (centres unmarked) [Compound A-21, 2-(2,6-Dimethyl-4-prop-1-ynyl-phenyl)-5-(2-methylsulfanyl-ethyl)cyclohexane-1,3-dione], for which the pest or weed control at 8 g/ha in [9] was 70%; in [10], 30%; in assay [6], 50%; in [7], 50%; in [8] it was 80%. Also, the pest or weed control at 30 g/ha came out at 10% in assay [9]; 80% in assay [10]; 70% in assay [6]; 50% in assay [7]; 80% in assay [8]. Moreover, the pest or weed control at 250 g/ha in assay [11] is 10%.
